The subject of one test is Edwardsiella tarda. Nature of the test: Antibacterial activity against Edwardsiella tarda after 16 to 18 hrs by micro-dilution method. It counts as functional. On the technique in general: Dilution methods test growth across graded concentrations, often in twofold steps.
The next test relates to Staphylococcus aureus. Nature of the test: Antibacterial activity against Staphylococcus aureus after 16 to 18 hrs by micro-dilution method. Format: functional.
Another test concerns Acinetobacter baumannii. Nature of the test: Antibacterial activity against Acinetobacter baumannii after 16 to 18 hrs by micro-dilution method. It counts as functional.
In a further test the test system is Morganella morganii. Put plainly: Antibacterial activity against Morganella morganii after 16 to 18 hrs by micro-dilution method. Format: functional.
Test [1] concerns Escherichia coli. Put plainly: Antibacterial activity against tolC-deficient Escherichia coli BW25113 after 16 to 18 hrs by micro-dilution method. Format: functional.
The subject of a further test is Shigella boydii. Put plainly: Antibacterial activity against Shigella boydii after 16 to 18 hrs by micro-dilution method. Format: functional.
Another test has as its system Klebsiella aerogenes. Put plainly: Antibacterial activity against Enterobacter aerogenes after 16 to 18 hrs by micro-dilution method. It counts as functional.
The test system of a further test is Bacillus subtilis. Nature of the test: Antibacterial activity against Bacillus subtilis 168 after 16 to 18 hrs by micro-dilution method. It counts as functional. The note with it: subsp. subtilis str. 168.
In test [2] the test system is Escherichia coli. Nature of the test: Antibacterial activity against Escherichia coli BW25113 after 16 to 18 hrs by micro-dilution method. It counts as functional.
Another test relates to Klebsiella pneumoniae. Nature of the test: Antibacterial activity against Klebsiella pneumoniae after 16 to 18 hrs by micro-dilution method. It counts as functional.
Test [3] has as its system Escherichia coli. Nature of the test: Induction of membrane permeabilization in Escherichia coli BW25113 at MIC after 15 mins by propidium iodide staining-based fluorescence microplate reader method relative to 50% ethanol. It counts as functional.
In a further test the test system is Vibrio cholerae. Put plainly: Antibacterial activity against Vibrio cholerae after 16 to 18 hrs by micro-dilution method. Format: functional.
For another test, the system named is Salmonella typhimurium. Put plainly: Antibacterial activity against Salmonella typhimurium after 16 to 18 hrs by micro-dilution method. The note with it: Salmonella enterica. It counts as functional, Salmonella enterica subsp. enterica serovar Typhimurium.
The next test relates to Pseudomonas aeruginosa. Put plainly: Antibacterial activity against Pseudomonas aeruginosa after 16 to 18 hrs by micro-dilution method. Format: functional.

Consider 6 molecules from ChEMBL document CHEMBL3864146, “5-Alkyloxytryptamines are membrane-targeting, broad-spectrum antibiotics” (Bioorg Med Chem Lett, 2016).

SMILES strings stand for the structures. ≈ marks a conversion by molar mass, not a printed value.

Broadly, the MIC is the lowest concentration found to suppress growth. Read a low MIC as greater potency. As for `CCCCCCCCCCCCCCOc1ccc2[nH]cc(CCN)c2c1.Cl`, the MIC was > 119 µg/mL against Edwardsiella tarda; 3.4 to 30 µg/mL with Staphylococcus aureus; > 119 µg/mL in the test on Acinetobacter baumannii; > 119 µg/mL in the test with Morganella morganii; > 119 µg/mL against Escherichia coli [1]; > 119 µg/mL in the test with Shigella boydii. The MIC is > 119 µg/mL in the test with Klebsiella aerogenes; 15 µg/mL against Bacillus subtilis; > 119 µg/mL against Escherichia coli [2]; > 119 µg/mL in the test with Klebsiella pneumoniae; > 119 µg/mL against Vibrio cholerae; > 119 µg/mL against Salmonella typhimurium. The minimum inhibitory concentration (MIC) in the test on Pseudomonas aeruginosa was > 119 µg/mL. Moreover, in the test with Escherichia coli [3], the Activity was 11%.

As to `CCCCCCCCCCCCCCCOc1ccc2[nH]cc(CCN)c2c1.Cl`, the MIC against Edwardsiella tarda, in the test on Staphylococcus aureus, against Acinetobacter baumannii, in the test on Morganella morganii, against Escherichia coli [1] and against Shigella boydii was > 124 µg/mL in each case. For the same molecule, the MIC in the test on Klebsiella aerogenes, against Bacillus subtilis, against Escherichia coli [2], with Klebsiella pneumoniae, against Vibrio cholerae and against Salmonella typhimurium was > 124 µg/mL in each case. The MIC in the test on Pseudomonas aeruginosa is > 124 µg/mL. The Activity with Escherichia coli [3] is on record as 13%.

`CCCCCCCCCOc1cccc(N)c1`: the MIC in the test with Edwardsiella tarda was > 80 µg/mL; with Staphylococcus aureus, > 80 µg/mL; against Acinetobacter baumannii, > 80 µg/mL; with Morganella morganii, > 80 µg/mL; against Escherichia coli [1], 10 µg/mL (≈ 42.5 µM); in the test with Shigella boydii, > 80 µg/mL. Moreover, the MIC is > 80 µg/mL in the test with Klebsiella aerogenes; 40 µg/mL (≈ 170 µM) in the test on Bacillus subtilis; > 40 µg/mL against Escherichia coli [2]; > 80 µg/mL against Klebsiella pneumoniae; > 80 µg/mL against Vibrio cholerae; > 80 µg/mL with Salmonella typhimurium. For the same molecule, the MIC in the test with Pseudomonas aeruginosa was > 80 µg/mL.

As to `CCCCCCCCCOc1ccc2[nH]cc(CC[N+](C)(C)C)c2c1`, the MIC was 26 µg/mL in the test with Edwardsiella tarda; 6.5 µg/mL against Staphylococcus aureus; 52 µg/mL against Acinetobacter baumannii; > 104 µg/mL in the test with Morganella morganii; 6.5 µg/mL with Escherichia coli [1]; 26 µg/mL against Shigella boydii. The MIC is 52 µg/mL against Klebsiella aerogenes; 52 µg/mL against Bacillus subtilis; 52 µg/mL in the test on Escherichia coli [2]; 26 µg/mL against Klebsiella pneumoniae; > 104 µg/mL in the test on Vibrio cholerae; 26 µg/mL in the test on Salmonella typhimurium. In the test on Pseudomonas aeruginosa, this molecule had an MIC of 52 µg/mL.

As to `CCCCOc1ccc2[nH]cc(CCN)c2c1.Cl`, the MIC against Edwardsiella tarda was > 74 µg/mL; in the test with Staphylococcus aureus it was > 74.3 µg/mL; in the test with Acinetobacter baumannii it was > 74.3 µg/mL; against Morganella morganii, > 74 µg/mL; in the test on Escherichia coli [1], > 74.3 µg/mL; against Shigella boydii, > 74 µg/mL. Moreover, the MIC is > 74 µg/mL with Klebsiella aerogenes; > 74.3 µg/mL against Bacillus subtilis; > 74.3 µg/mL in the test with Escherichia coli [2]; > 74 µg/mL in the test on Klebsiella pneumoniae; > 74 µg/mL with Vibrio cholerae; > 74 µg/mL in the test on Salmonella typhimurium. In addition, the minimum inhibitory concentration (MIC) against Pseudomonas aeruginosa is > 74 µg/mL. In the test with Escherichia coli [3], the Activity worked out at 3%.

For the molecule `Cl.NCCc1c[nH]c2ccc(OCCCCCCCc3ccccc3)cc12`, the MIC against Edwardsiella tarda was 28 µg/mL; against Staphylococcus aureus it was 3.5 µg/mL; against Acinetobacter baumannii, 7 µg/mL; against Morganella morganii, > 112 µg/mL; against Escherichia coli [1], 1.8 µg/mL; with Shigella boydii, 7 µg/mL. Besides, the MIC with Klebsiella aerogenes was 14 µg/mL; against Bacillus subtilis it was 1.8 µg/mL; with Escherichia coli [2] it was 14 µg/mL; against Klebsiella pneumoniae, 7 µg/mL; with Vibrio cholerae it was 7 µg/mL; in the test on Salmonella typhimurium it was 7 µg/mL. The molecule also registered an MIC against Pseudomonas aeruginosa of 56 µg/mL.
